Counter-ions that a name gives are not always drawn.
Target: TAFIa (Homo sapiens (Human), UniProt Q96IY4)
Test: Determination of TAFIa enzyme inhibitory activity (FAAK substrate degradation)
Type: biochemical
Conditions: TAFI activated with human thrombin / rabbit lung thrombomodulin; substrate FAAK, absorbance at 330 nm; di-p-toluenesulfonate; read-out: TAFIa IC50
Description: Determination of TAFIa Enzyme Inhibitory Activity
HEPES buffered saline (20 mM HEPES, 150 mM NaCl, pH 7.4; hereinafter, referred to as HBS) was used in the preparation of a reaction solution. To 12 μL of a 250 μg/mL TAFI solution, 30 μL of an HBS solution containing 4 U/mL human thrombin, 12 U/mL rabbit lung thrombomodulin, and 12 mM CaCl2 was added, and the mixture was gently stirred. Then, TAFI was activated at room temperature. Ten minutes later, thrombin was neutralized by the addition of 10 μL of 100 μM PPACK (thrombin inhibitor) to terminate the activation of TAFI. The formed TAFIa was stored in ice and diluted immediately before use in determination with 2050 μL of an HBS solution containing BSA (bovine serum albumin) adjusted to 0.1% in terms of the final concentration.
(2) Determination of TAFIa Inhibitory Activity
A test substance was dissolved in HBS to prepare a 10-fold dilution series of evaluation concentrations. 80 μL of the TAFIa solution and 10 μL of the test substance were added to each well of a 96-well plate and mixed by shaking for 10 minutes. 10 μL of furylacryloyl-alanyl-lysine (FAAK) adjusted to 5 mg/mL was added to each well, and the change in the absorbance of this mixed solution at 330 nm was read for 30 minutes to determine the degradation rate of the substrate.
(3) Calculation of Inhibitory Activity IC50
The degradation rate of the substrate in each well was applied to a standard curve prepared using the dilution series of the TAFIa solution to calculate TAFIa activity.

Chain of TAFIa (Q96IY4 115-423): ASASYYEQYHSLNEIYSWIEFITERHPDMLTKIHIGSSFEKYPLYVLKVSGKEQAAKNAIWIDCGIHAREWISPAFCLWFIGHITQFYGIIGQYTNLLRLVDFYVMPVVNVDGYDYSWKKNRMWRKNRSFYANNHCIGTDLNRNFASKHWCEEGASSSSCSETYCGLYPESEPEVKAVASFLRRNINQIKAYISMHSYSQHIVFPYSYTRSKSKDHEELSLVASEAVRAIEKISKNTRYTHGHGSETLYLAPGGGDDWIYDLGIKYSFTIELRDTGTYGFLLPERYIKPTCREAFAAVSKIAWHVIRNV

SMILES	IC50
NCCC[C@H]1C[C@]1(C(=O)O)c1cn(-c2ccccc2)cn1 [Example 31, (1R,2S)-2-(3-Aminopropyl)-1-(1-phenyl-1H-imidazol-4-yl)cyclopropanecarboxylic acid di-p-toluenesulfonate]	0.015 µM

Same assay, conditions: TAFI activated with human thrombin / rabbit lung thrombomodulin; substrate FAAK, absorbance at 330 nm; read-out: TAFIa IC50

IC50	SMILES
0.014 µM	C[C@H]1CC[C@H](n2cnc([C@@]3(C(=O)O)C[C@@H]3CCCN)c2)CC1 (relative stereo) [Example 5, (1R*,2S*)-2-(3-Aminopropyl)-1-[1-(trans-4-methylcyclohexyl)-1H-imidazol-4-yl]cyclopropanecarboxylic acid]
0.0079 µM	CC[C@@H](CN)C[C@H]1C[C@]1(C(=O)O)c1cn(-c2ccccc2)cn1 [Example 62, (1R,2S)-2-[(2R)-2-(Aminomethyl)butyl]-1-(1-phenyl-1H-imidazol-4-yl)cyclopropanecarboxylic acid]
0.058 µM	NCCC[C@H]1C[C@]1(C(=O)O)c1cn(-c2ccc3ccccc3n2)cn1 (relative stereo) [Example 42, (1R*,2S*)-2-(3-Aminopropyl)-1-(1-quinolin-2-yl-1H-imidazol-4-yl)cyclopropanecarboxylic acid]
0.04 µM	NCCC[C@H]1C[C@]1(C(=O)O)c1cn(-c2cccc(F)c2)cn1 (relative stereo) [Example 22, (1R*,2S*)-2-(3-Aminopropyl)-1-[1-(3-fluorophenyl)-1H-imidazol-4-yl]cyclopropanecarboxylic acid]
0.93 µM	CC(CN)C[C@H]1C[C@]1(C(=O)O)c1cn(-c2ccc(S(C)(=O)=O)cc2)cn1 (relative stereo) [Example 34, (1R*,2S*)-2-(3-Amino-2-methylpropyl)-1-{1-[4-(methylsulfonyl)phenyl]-1H-imidazol-4-yl}cyclopropanecarboxylic acid]
0.018 µM	Cc1ccc(-n2cnc([C@@]3(C(=O)O)C[C@@H]3CCCN)c2)nc1 (relative stereo) [Example 49, (1R*,2S*)-2-(3-Aminopropyl)-1-[1-(5-methylpyridin-2-yl)-1H-imidazol-4-yl]cyclopropanecarboxylic acid]
> 10 µM	NCCC[C@@H]1C[C@@]1(C(=O)O)c1cn(-c2ccccc2)cn1 [Example 29, (1S,2R)-2-(3-Aminopropyl)-1-(1-phenyl-1H-imidazol-4-yl)cyclopropanecarboxylic acid]
0.016 µM	COc1ccc(-n2cnc([C@@]3(C(=O)O)C[C@@H]3CCCN)c2)nc1 (relative stereo) [Example 44, (1R*,2S*)-2-(3-Aminopropyl)-1-[1-(5-methoxypyridin-2-yl)-1H-imidazol-4-yl]cyclopropanecarboxylic acid]
0.027 µM	NCCC[C@H]1C[C@]1(C(=O)O)c1cn(-c2ccc3ccccc3c2)cn1 (relative stereo) [Example 21, (1R*,2S*)-2-(3-Aminopropyl)-1-[1-(2-naphthyl)-1H-imidazol-4-yl]cyclopropanecarboxylic acid]
0.036 µM	COc1ccc(-n2cnc([C@@]3(C(=O)O)C[C@@H]3CCCN)c2)cc1 (relative stereo) [Example 12, (1R*,2S*)-2-(3-Aminopropyl)-1-[1-(4-methoxyphenyl)-1H-imidazol-4-yl]cyclopropanecarboxylic acid]
0.17 µM	NCCC[C@H]1C[C@]1(C(=O)O)c1cn(-c2ccncc2)cn1 (relative stereo) [Example 23, (1R*,2S*)-2-(3-Aminopropyl)-1-(1-pyridin-4-yl-1H-imidazol-4-yl)cyclopropanecarboxylic acid hydrochloride]
0.073 µM	Cc1cccc(-n2cnc([C@@]3(C(=O)O)C[C@@H]3CCCN)c2)n1 (relative stereo) [Example 65, (1R*,2S*)-2-(3-Aminopropyl)-1-[1-(6-methylpyridin-2-yl)-1H-imidazol-4-yl]cyclopropanecarboxylic acid]
0.019 µM	NCCC[C@H]1C[C@]1(C(=O)O)c1cn(-c2ccc(F)cn2)cn1 (relative stereo) [Example 41, (1R*,2S*)-2-(3-Aminopropyl)-1-[1-(5-fluoropyridin-2-yl)-1H-imidazol-4-yl]cyclopropanecarboxylic acid]
> 0.3 µM	CC(C)(CN)C[C@@H]1C[C@]1(C(=O)O)c1cn(-c2ccccc2)cn1 (relative stereo) [Example 52, (1R*,2R*)-2-(3-Amino-2,2-dimethylpropyl)-1-(1-phenyl-1H-imidazol-4-yl]cyclopropanecarboxylic acid]
0.029 µM	NCCC[C@H]1C[C@]1(C(=O)O)c1cn(C2CCCCC2)cn1 (relative stereo) [Example 4, (1R*,2S*)-2-(3-Aminopropyl)-1-(1-cyclohexyl-1H-imidazol-4-yl)cyclopropanecarboxylic acid]
0.058 µM	NCCC[C@H]1C[C@]1(C(=O)O)c1cn(-c2nccs2)cn1 (relative stereo) [Example 38, (1R*,2S*)-2-(3-Aminopropyl)-1-[1-(1,3-thiazol-2-yl)-1H-imidazol-4-yl]cyclopropanecarboxylic acid]
0.016 µM	NCCC[C@H]1C[C@]1(C(=O)O)c1cn(-c2cc3ccccc3cn2)cn1 (relative stereo) [Example 46, (1R*,2S*)-2-(3-Aminopropyl)-1-(1-isoquinolin-3-yl-1H-imidazol-4-yl)cyclopropanecarboxylic acid]
0.14 µM	NCCC[C@H]1C[C@]1(C(=O)O)c1cn(-c2ccccc2Cl)cn1 (relative stereo) [Example 20, (1R*,2S*)-2-(3-Aminopropyl)-1-[1-(2-chlorophenyl)-1H-imidazol-4-yl]cyclopropanecarboxylic acid hydrochloride]
0.099 µM	NCCC[C@H]1C[C@]1(C(=O)O)c1cn(/C=C/c2ccccc2)cn1 (relative stereo) [Example 14, (1R*,2S*)-2-(3-Aminopropyl)-1-{1-[(E)-2-phenylvinyl]-1H-imidazol-4-yl}cyclopropanecarboxylic acid]
0.063 µM	NCCC[C@H]1C[C@]1(C(=O)O)c1cn(-c2ccc(Cl)cn2)cn1 (relative stereo) [Example 45, (1R*,2S*)-2-(3-Aminopropyl)-1-[1-(5-chloropyridin-2-yl)-1H-imidazol-4-yl]cyclopropanecarboxylic acid]

SMILES	IC50
NCCC[C@H]1C[C@]1(C(=O)O)c1cn(-c2ccccn2)cn1 [Example 48, (1R,2S)-2-(3-Aminopropyl)-1-(1-pyridin-2-yl-1H-imidazol-4-yl)cyclopropanecarboxylic acid]	0.011 µM
Cc1ccc(-n2cnc([C@]3(C(=O)O)C[C@H]3C[C@@H](C)CN)c2)nc1 [Example 59, (1S,2R)-2-[(2R)-3-Amino-2-methylpropyl]-1-[1-(5-methylpyridin-2-yl)-1H-imidazol-4-yl]cyclopropanecarboxylic acid]	0.5 µM
C[C@H](CN)C[C@H]1C[C@]1(C(=O)O)c1cn(-c2ccccn2)cn1 [Example 56, (1R,2S)-2-[(2S)-3-Amino-2-methylpropyl]-1-(1-pyridin-2-yl-1H-imidazol-4-yl]cyclopropanecarboxylic acid]	0.033 µM
C[C@@H](CN)C[C@H]1C[C@]1(C(=O)O)c1cn(-c2ccccn2)cn1 [Example 54, (1R,2S)-2-[(2R)-3-Amino-2-methylpropyl]-1-(1-pyridin-2-yl-1H-imidazol-4-yl]cyclopropanecarboxylic acid]	0.011 µM
NCCC[C@H]1C[C@]1(C(=O)O)c1cn(-c2ccccc2)cn1 (relative stereo) [Example 6, (1R*,2S*)-2-(3-Aminopropyl)-1-(1-phenyl-1H-imidazol-4-yl)cyclopropanecarboxylic acid]	0.027 µM
Cc1ccc(-n2cnc([C@@]3(C(=O)O)C[C@@H]3C[C@@H](C)CN)c2)nc1 [Example 58, (1R,2S)-2-[(2R)-3-Amino-2-methylpropyl]-1-[1-(5-methylpyridin-2-yl)-1H-imidazol-4-yl]cyclopropanecarboxylic acid]	0.0087 µM
C[C@H](CN)C[C@H]1C[C@]1(C(=O)O)c1cn(-c2ccccc2)cn1 [Example 51, (1R,2S)-2-[(2S)-3-Amino-2-methylpropyl]-1-(1-phenyl-1H-imidazol-4-yl)cyclopropanecarboxylic acid]	0.035 µM

Same assay, conditions: TAFIa IC50

IC50	SMILES
0.0087 µM	CC(C)(C)CCn1cnc(C2(C(=O)O)CC2CCCN)c1 (single isomer, unassigned) [Example 1, (1R*,2S*)-2-(3-Aminopropyl)-1-[1-(3,3-dimethylbutyl)-1H-imidazol-4-yl]cyclopropanecarboxylic acid]

Same assay, conditions: read-out: TAFIa IC50

SMILES	IC50
CCC[C@@H](CN)C[C@H]1C[C@]1(C(=O)O)c1cn(-c2ccccn2)cn1 [Example 66, (1R,2S)-2-[(2R)-2-(Aminomethyl)pentyl]-1-(1-pyridin-2-yl-1H-imidazol-4-yl)cyclopropanecarboxylic acid]	0.041 µM
CC[C@H](CN)C[C@H]1C[C@]1(C(=O)O)c1cn(-c2ccccc2)cn1 [Example 63, (1R,2S)-2-[(25)-2-(Aminomethyl)butyl]-1-(1-phenyl-1H-imidazol-4-yl)cyclopropanecarboxylic acid]	0.012 µM
